According to patent US9415049B2, “Heteroaryl compounds and uses thereof” (Celgene Avilomics Research, Inc., priority 2013, dated 2016):

How the values were obtained:
[1] = tested on: PLCγ2 phosphorylation (Phospho Y-1217 PLCγ2) in Ramos cells; assay: Btk Ramos cell signaling immunoblot analysis, phospho-PLCγ2; assay type: cell-based; conditions: 1 hour compound incubation, anti-human IgM stimulation, read-out: pPLCγ2 EC50
Procedure: The following example describes testing certain compounds according to the invention for inhibition of BTK activity. Ramos cells were incubated in serum-free RPMI medium for 1-1.5 hours. Cells were then centrifuged for 5 minutes at 1100 RPM and resuspended in serum-free RPMI in 15 mL roundbottom Corning tubes (˜2×10^6 cells/mL in 4 mL/tube). The compound was diluted in DMSO and was added to the cells to achieve a final concentration of 0.0003, 0.001, 0.003, 0.01, 0.03, 0.1, 0.3, and 1.0 μM. Cells were then incubated for 1 hour at 37° C. Following incubation, cells were spun at 1100 RPM for 5 minutes and then resuspended in 100 μL of serum-free RPMI. […] Supernatant was transferred to a fresh tube and analyzed for protein content. […]
10 μg of protein was denatured by adding 1:10 (v:v) of NuPage Reducing Agent plus 1:4 (v:v) of LDS Loading Buffer. […] The membrane was then scanned on a LiCor Odyssey Scanner using infrared fluorescence detection.
Data analysis was accomplished using the analysis package found in Odyssey Infrared Imaging System software in which intensities of total Btk and phospho-Btk were measured. Phospho-Btk was normalized to total Btk protein in each lane as a loading control and results are expressed as % activity compared to the DMSO control (100%) Inhibition of phospho-PLCγ2 was quantitated in a similar manner. […]

BTK = target: T1, BTK (Homo sapiens, UniProt Q06187); assay: Btk target site occupancy, covalent probe ELISA in Ramos cells; assay type: cell-based; conditions: 1 hour at 37° C., 0.09-200 nM, read-out: Ramos cell EC50 (nM), BTK occupancy
T1 construct: endogenous in cells; host or cells: Ramos cells
T1 sequence (Q06187 whole entry): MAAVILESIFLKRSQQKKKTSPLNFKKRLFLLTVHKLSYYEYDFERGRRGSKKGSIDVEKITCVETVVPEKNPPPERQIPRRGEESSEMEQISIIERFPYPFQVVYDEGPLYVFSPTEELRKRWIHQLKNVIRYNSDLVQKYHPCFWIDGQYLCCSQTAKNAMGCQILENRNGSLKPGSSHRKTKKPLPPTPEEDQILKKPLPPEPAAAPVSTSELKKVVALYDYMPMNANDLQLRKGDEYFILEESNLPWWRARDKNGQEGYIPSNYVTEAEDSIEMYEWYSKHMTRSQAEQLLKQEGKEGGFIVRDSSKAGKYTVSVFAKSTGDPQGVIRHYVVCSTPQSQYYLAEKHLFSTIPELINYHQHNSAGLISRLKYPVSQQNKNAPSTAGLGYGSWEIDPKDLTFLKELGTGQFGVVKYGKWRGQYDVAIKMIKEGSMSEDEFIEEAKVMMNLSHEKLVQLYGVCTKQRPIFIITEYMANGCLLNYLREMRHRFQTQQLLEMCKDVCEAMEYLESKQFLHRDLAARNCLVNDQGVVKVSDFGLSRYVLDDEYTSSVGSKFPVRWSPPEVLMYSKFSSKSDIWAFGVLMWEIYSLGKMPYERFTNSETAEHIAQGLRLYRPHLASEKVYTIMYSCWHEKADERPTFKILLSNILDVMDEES
Procedure: A covalent probe shown below was used in an ELISA assay to determine occupancy of the target BTK by certain compounds according to the invention.
Ramos cells were incubated in serum-free RPMI medium for 1 hour (˜2×10^6 cells/mL in 2 mL). Test compounds were diluted from a 10 mM DMSO stock solution, to achieve a final concentration of 0.09, 0.27, 0.82, 2.47, 7.42, 22.2, 66, and 200 nM. Cells were then incubated for 1 hour at 37° C. Following incubation, cells were spun at 1100 RPM for 5 minutes then washed in 200 μL of chilled PBS. Following the wash, cells were spun at 1100 RPM for 5 minutes. The supernatant was aspirated and then cells were resuspended in lysis buffer containing protease and phosphatase inhibitors. This was followed by centrifugation for 15 minutes at 14000 RPM at 4° C. Supernatant was transferred to a fresh tube. Lysates were stored at −80° C. until assayed.
Samples were thawed and mixed well by vortexing for 5 seconds. 60 μL of each sample was added into the 96-well mixing plate followed by addition of 60 μL of covalent probe solution (2 μM probe in PBS+0.05% Tween-20+1% BSA; 1:2 sample dilution) to each well containing sample. An adhesive cover was then placed on the plate followed by mixing of the plate on a shaker for 1 hour at room temperature. The streptavidin plate was pre-washed 3 times with PBS+0.05% Tween-20. 50 μL of the standards, QCs, and samples were then transferred from the mixing plate to the streptavidin plate. The plate was covered with an adhesive cover and mixed while shaking for 1 hour at room temperature. A 1:1000 dilution of the primary anti-Btk antibody (catalog #611116, Becton Dickinson; Franklin Lakes, N.J.) in PBS+0.05% Tween-20+0.5% BSA was prepared. The streptavidin plate was washed 3 times with PBS+0.05% Tween-20 and 50 μL/well of diluted anti-Btk antibody was then pipetted into the streptavidin plate. The plate was covered and incubated for 1 hour at room temperature. A 1:5000 dilution of secondary antibody (goat anti-mouse-HRP, catalog #62-6520, Zymed-Invitrogen; Carlsbad, Calif.) in PBS+0.05% Tween-20+0.5% BSA was prepared. The streptavidin plate was again washed 3 times with PBS+0.05% Tween-20 and 50 μL/well of diluted secondary antibody was pipetted into the streptavidin plate. The plate was covered and incubated for 1 hour at room temperature. The streptavidin plate was again washed 3 times with PBS+0.05% Tween-20 followed by the addition of 100 μL of TMB solution to each well. The plate was then read on a Synergy^2 plate reader at OD 650 nm until the OD maximum reached 1.0. This was followed by the addition of 100 μL of the Stop Solution. The plate was then read at OD 450 nm. A human recombinant Btk protein standard curve (11.7-3000 pg/μL) was plotted using a 4 parameter curve fit in GenS software (Version 1.05.11; Biotek; Winooski, Vt.;). The sample ODs were read against the standard curve to calculate free protein amounts.
Data were generated as ODs on an ELISA plate reader (Synergy^2, BioTek; Winooski, Vt.). Uninhibited Btk captured by the biotinylated covalent probe was quantitated and normalized to untreated control samples. Results were expressed as % Btk occupancy. EC50 values were generated using a 4 parameter curve fit analysis in GraphPad Prism version 5.0.

SMILES	EC50 [1] [nM]	EC50 (BTK) [nM]
C=CC(=O)Nc1cccc(Nc2nc(Nc3ccc(O)cc3)ncc2F)c1 [Compound I-3, N-(3-((5-fluoro-2-((4-hydroxyphenyl)amino)pyrimidin-4-yl)amino)phenyl)acrylamide]	10 to 50	< 50
C=CC(=O)Nc1cccc(Nc2nc(Nc3ccc(OCCO)cc3)ncc2F)c1 [Compound I-1, N-(3-((5-fluoro-2-((4-(2-hydroxyethoxy)phenyl)amino)pyrimidin-4-yl)amino)phenyl)acrylamide]	< 10	< 50
